Assays:
GST-SHP-1 = target: T1, GST-SHP-1 (Homo sapiens, UniProt P29350); test: in vitro phosphatase assay, SHP-1; assay type: biochemical; settings: for functional specificity SHP-2 vs. SHP-1: phosphatase assays at the indicated concentrations
T1 construct: purchased Biomol International, L.P. (Plymouth Meeting, Pa.)
Text: (§1) Candidate compounds were screened using the in vitro protein tyrosine phosphatase (PTP) assay kit (Sigma, St. Lois, Mo.). SHP-2 PTP domain GST fusion protein purified in house was used as the enzyme and a phospho-peptide corresponding to the surrounding sequence of pTyr^1146 in the insulin receptor (Thr-Arg-Asp-Ile-Tyr[PO3H2]-Glu-Thr-Asp-Tyr-Tyr) were used as the substrate. The assay determines free phosphate generated by dephosphorylation of the PTP substrate using the Malachite Green reagent. Briefly, 0.5 μg of GST-SHP-2 PTP was incubated in 40 μL assay buffer (25 mM Tris-HCl, PH7.4, 50 mM NaCl, 5 mM DTT, and 2.5 mM EDTA) with test compounds at various concentrations or DMSO at room temperature for 30 min. The PTP substrate was then added to a final concentration of 0.2 mM. The system was incubated at 30° C. for 30 min. Finally, 50 μl of Malachite Green solution was added and OD620 was measured after 5 min. In the phosphatase assays for SHP-1, CD45, TC-PTP, PTP-MEG2 (PTPN9), and LAR (PTPRF), procedures were similar, with the exception that GST-SHP-1, GST-CD45 cytoplasmic domain, GST-TC-PTP, GST-PTP-MEG2 PTP domain, and GST-LAR PTP domain purchased from Biomol International, L.P. (Plymouth Meeting, Pa.) were used instead as the enzymes.

GST-TC-PTP = target: T2, GST-TC-PTP (Homo sapiens, UniProt P17706); test: in vitro phosphatase assay, TC-PTP; assay type: biochemical; settings: for inhibition of TC-PTP: FIG. 4
T2 construct: purchased Biomol International, L.P. (Plymouth Meeting, Pa.)
T2 sequence (P17706 1-415): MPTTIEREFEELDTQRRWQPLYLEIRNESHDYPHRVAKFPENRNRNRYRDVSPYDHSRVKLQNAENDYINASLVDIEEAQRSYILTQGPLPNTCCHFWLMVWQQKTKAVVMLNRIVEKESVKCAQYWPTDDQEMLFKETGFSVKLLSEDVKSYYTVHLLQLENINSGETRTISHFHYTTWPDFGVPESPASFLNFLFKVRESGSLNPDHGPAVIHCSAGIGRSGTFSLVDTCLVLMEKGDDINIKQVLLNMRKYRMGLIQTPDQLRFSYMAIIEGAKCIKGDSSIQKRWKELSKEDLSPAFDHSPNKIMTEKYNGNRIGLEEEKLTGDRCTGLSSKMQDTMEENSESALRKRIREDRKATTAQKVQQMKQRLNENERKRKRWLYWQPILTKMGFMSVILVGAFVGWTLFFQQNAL
Procedure: as §1, with “SHP-2 PTP domain GST fusion protein purified in house was used as the enzyme and a phospho-peptide corresponding to the surrounding sequence of pTyr^1146 in the insulin receptor (Thr-Arg-Asp-Ile-Tyr[PO3H2]-Glu-Thr-Asp-Tyr-Tyr) were used as the substrate.” left out

Ba/F3 cells = test: Ba/F3 cell proliferation assay (IL-3, MTS); assay type: cell-based, murine
Procedure: To test the effects of the active compounds on IL-3-induced cellular response, Ba/F3, an IL-3 dependent murine pro-B lymphoma cell line, was used for the assay. Ba/F3 cells were seeded into 96-well plates (2×10^4 cells/well) in the RPMI-1640 medium supplemented with 10% fetal bovine serum (FBS), recombinant mouse IL-3 (1 ng/mL), and test compounds ([…]). Three days later, cell number was determined using the MTS cell proliferation kit (Promega Life Science, Madison, Wis.).
To test the effects of the active compounds on SHP-2-mediated cellular proliferation, Ba/F3, an IL-3 dependent hematopoietic cell line, mouse embryonic fibroblasts (MEFs), and H661 lung cancer cell line with SHP-2 activating mutation N58S were used for the assays. Cells were seeded into 96-well plates (2×10^4 cells/well) in the RPMI-1640 (for Ba/F3 cells) or DMEM (for MEFs and H661 cells) medium supplemented with 10% fetal bovine serum (FBS) and test compounds at various concentrations. For the Ba/F3 cell assay, recombinant mouse IL-3 (1 ng/mL) was included in the culture medium. Two days later, cell number was determined using the MTS cell proliferation kit (Promega Life Science, Madison, Wis.).

[1] = target: T3, SHP-2 PTP domain GST fusion protein (Homo sapiens, UniProt Q06124); test: in vitro protein tyrosine phosphatase assay, SHP-2 (Malachite Green); assay type: biochemical; set-up: SHP-2 PTP domain GST fusion protein purified in house was used as the enzyme; made in house; settings: for inhibition at 100 µM: compound at 100 μM, read-out: inhibition of SHP-2 enzymatic activity
T3 sequence (Q06124 247-517 limits assumed): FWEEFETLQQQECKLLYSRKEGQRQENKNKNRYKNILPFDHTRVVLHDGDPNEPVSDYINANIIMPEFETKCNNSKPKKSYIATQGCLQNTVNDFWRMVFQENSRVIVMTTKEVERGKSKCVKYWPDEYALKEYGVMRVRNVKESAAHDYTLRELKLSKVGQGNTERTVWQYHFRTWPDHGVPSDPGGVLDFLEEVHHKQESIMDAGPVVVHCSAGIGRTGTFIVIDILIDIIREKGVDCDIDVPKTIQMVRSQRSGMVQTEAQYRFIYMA
Text: as §1
Candidate compounds identified by CADD were screened by the in vitro tyrosine phosphatase assay as described in the Experimental Section. The GST-SHP-2 PTP domain fusion protein was incubated with the compounds at room temperature for 30 min before the phospho-peptide substrate was added to the assay systems, allowing compounds to bind to target sites in SHP-2. Each test compound was dissolved in DMSO. Initial concentration of the test compounds was 100 μM. In the experimental assay, DMSO was included as the negative control and sodium orthovanadate (100 μM), a general non-specific tyrosine phosphatase inhibitor, was used as the positive control. From the 165 commercially available compounds tested, we identified 9 compounds that inhibit SHP-2 catalytic activity with various efficiencies (FIG. 3A). […] The inhibitory effects of the compounds were dose-dependent.

T1 sequence (P29350 whole entry): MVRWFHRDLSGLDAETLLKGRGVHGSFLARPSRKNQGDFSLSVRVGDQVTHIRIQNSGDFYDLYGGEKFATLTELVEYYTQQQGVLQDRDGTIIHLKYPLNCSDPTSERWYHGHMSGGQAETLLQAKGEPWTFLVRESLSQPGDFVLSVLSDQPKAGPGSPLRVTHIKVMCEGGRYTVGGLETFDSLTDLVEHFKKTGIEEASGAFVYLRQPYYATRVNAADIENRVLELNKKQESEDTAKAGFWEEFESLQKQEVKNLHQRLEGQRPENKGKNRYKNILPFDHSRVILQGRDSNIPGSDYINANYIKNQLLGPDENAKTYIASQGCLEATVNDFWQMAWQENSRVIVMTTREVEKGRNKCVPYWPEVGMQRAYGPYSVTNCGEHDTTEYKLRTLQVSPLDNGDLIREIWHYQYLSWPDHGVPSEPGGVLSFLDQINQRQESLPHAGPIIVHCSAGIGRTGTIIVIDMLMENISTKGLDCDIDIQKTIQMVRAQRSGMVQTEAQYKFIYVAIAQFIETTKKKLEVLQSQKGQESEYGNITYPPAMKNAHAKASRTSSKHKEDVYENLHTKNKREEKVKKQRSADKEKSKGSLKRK

Cc1cc(C)c2c(c1)[nH]c1nnc(SCC(=O)NCc3cccs3)nc12 [#220]
functional specificity SHP-2 vs. SHP-1 (GST-SHP-1): selectively inhibited SHP-2 vs. SHP-1
inhibition of TC-PTP (GST-TC-PTP): slight inhibition
acute cytotoxicity (Ba/F3 cells): modest acute cytotoxicity
inhibition at 100 µM [1]: 50%

NS(=O)(=O)c1ccc(CCNC(=O)c2ccc(Cn3c(=S)[nH]c4ccc(Br)cc4c3=O)cc2)cc1 [#216]
functional specificity SHP-2 vs. SHP-1 (GST-SHP-1): selectively inhibited SHP-2 vs. SHP-1
inhibition of TC-PTP (GST-TC-PTP): slight inhibition
IL-3-stimulated cell growth (Ba/F3 cells; 100 or 200 μM, IL-3 1 ng/mL, 72 hours): greatly decreased
inhibition at 100 µM [1]: 55%

Cc1cc(C)c2[nH]c3nc(SCC(=O)Nc4cccc5ccccc45)nnc3c2c1 [#324]
functional specificity SHP-2 vs. SHP-1 (GST-SHP-1): high functional specificity for SHP-2 over SHP-1
IC50 (GST-SHP-1; read-out: IC50 SHP1): 37.7 µM
IC50 (GST-TC-PTP): 39.9 µM
SHP-2 mediated proliferative response to IL-3 (Ba/F3 cells; IL-3 1 ng/mL, 48 hours): inhibit
selectivity for SHP-2 compared to other PTPases ([1]; Table 1 and FIG. 10): selectively inhibits SHP-2 compared to other PTPases
IC50 ([1]; read-out: IC50 SHP2): 13.9 µM

Source: patent US8673913B2, “SHP-2 phosphatase inhibitor” (Case Western Reserve University, priority 2009, dated 2014)
